How the values were obtained:
Assay type in all cases: biochemical
[1] = test system: Rhizopus chinensis lipase r27RCL; test: Ester synthesis activity of surfactant-treated lyophilized lipase r27RCL by GC analysis; conditions: protein 0.2 mg·mL^−1
Experimental: (§1) (2) Determination of Ester Synthesis Activity of the Lipase by GC Analysis
(§2) Substrate solution A: 48.5 mL of n-octanoic acid is dissolved in 250 mL of n-heptane in a volumetric flask.
(§3) Substrate solution B: 17.5 mL of absolute ethanol is dissolved in 250 mL of n-heptane in a volumetric flask.
(§4) Internal standard: 2-hexanol/n-heptane (35 g·L^−1).
(§5) Standard sample: 10 g of n-octanoate is dissolved in 1000 mL of n-heptane in a volumetric flask.
(§6) 1 mL substrate solution A and substrate solution B are added in a 5 mL Eppendorf tube respectively, then 20 mg lipase powder (or lyophilized powder) is added. The reaction is carried out at 40° C. and with shaking at 150 rpm for 30 min. Remove the lipase powder by centrifugation or membrane filtration. Then 0.1 mL of internal standard is added in 0.4 mL of filtrate or supernatant and mixed. Measure the content of n-octanoate in the mixture above by GC analysis.
(§7) The gas chromatograph (6820, Agilent Instruments) is equipped with a AC20 (PEG20000) capillary column and a FID detector. Nitrogen was used as the carrier gas. The oven temperature was programmed to start at 90° C. for 1 min and then be elevated to 200° C. for 5 min at 10° C.·min^−1. The injector and detector temperatures were set at 250° C.
(§8) Definition of enzyme activity: One unit of ester synthesis activity is defined as the amount of enzyme that esterifies 1 micromole of n-octanoate per min.
(§9) Specific activity: the activity of lipase per milligram of total protein in the lipase preparation.
(§10) Total recovery: the percentage of the activity after a treatment to that before the treatment
(§11) Add an equal volume of high-concentration surfactant solution into the enzyme solution. The final protein concentration was […] and the surfactant concentration was 10 mM. After mixed thoroughly, the mixture was lyophilized and kept in dry condition.
(§12) Commercial lipase r27RCL was purchased from Jiangsu Yiming Biological Technology Co., Ltd, which has high hydrolytic activity and low ester synthesis activity. Dissolve the r27RCL powder in water and centrifuge to obtain the supernatant containing the r27RCL lipase to adjust the ester synthesis activity (the final protein concentration was 0.2 mg·mL^−1 and the final concentration of surfactant was 10 mM, which is between 0.1×CMC^˜200×CMC of the different surfactants in Table 1).
(§13) Commercial lipase r27RCL was purchased from Jiangsu Yiming Biological Technology Co., Ltd. r27RCL is a lipase with high hydrolytic activity but low ester synthesis activity. Dissolve the r27RCL powder in water, centrifuge to obtain the supernatant and treat the supernatant with different concentrations of surfactant LPC14 (the final protein concentration was 0.2 mg·mL^−1).

[2] = test system: Rhizopus chinensis lipase r27RCL; test: Hydrolytic activity of surfactant-treated lipase r27RCL using pNPP as substrate; conditions: protein 0.2 mg·mL^−1
Source text: (§14) (1) Determination of Hydrolytic Activity of the Lipase Using p-Nitrophenyl Palmitate (pNPP) as Substrate
(§15) Hydrolysis of pNPP catalyzed by lipase generates p-nitrophenol and palmitic acid. p-nitrophenol appears yellow in the buffer at pH 8.0 with the maximum absorption peak at 410 nm. Determination of hydrolytic activity can be achieved by measuring the absorbance at 410 nm.
(§16) The substrate solution A: 50 mmol·L^−1 sodium phosphate buffer (pH 8.0) containing 1.16 g·L^−1 sodium deoxycholate and 0.56 g·L^−1 arabic gum. Substrate solution B: 0.015 g pNPP is dissolved in 5 mL isopropyl alcohol. Substrate solution A and substrate solution B are mixed then stored for use afterwards.
(§17) Termination solution: 40 g·L^−1 NaOH, 93.05 g·L^−1 EDTA sodium. Add 62 uL termination solution to the reaction mixture when stopping the reaction.
(§18) Add 0.1 mL appropriately diluted enzyme solution, which is substituted by inactivated enzyme solution as the control, to 2.4 mL substrate solution above, incubate the mixture at 40° C. for 2 min and measure the absorbance at 410 nm.
(§19) one hydrolytic activity unit is defined as the amount of enzyme that catalyzes the formation of 1 μmol of p-nitrophenol in 1 minute at 40° C.
(§20) enzyme activity (U·mL^−1)=(V×A410×10^6)/(ε×t×V′) Calculation equation: […]
(§21) Specific activity: the activity of lipase per milligram of total protein in the lipase preparation. […]
as §12, §13

[3] = molecular target: T1, Rhizoupus oryzae lipase ROL (Rhizopus oryzae, UniProt P61872); test: Ester synthesis activity of surfactant-treated lyophilized lipase ROL by GC analysis; conditions: protein 0.2 mg·mL^−1
T1 construct: purchased Sigma-Aldrich Co., Ltd
T1 sequence (P61872 96-392): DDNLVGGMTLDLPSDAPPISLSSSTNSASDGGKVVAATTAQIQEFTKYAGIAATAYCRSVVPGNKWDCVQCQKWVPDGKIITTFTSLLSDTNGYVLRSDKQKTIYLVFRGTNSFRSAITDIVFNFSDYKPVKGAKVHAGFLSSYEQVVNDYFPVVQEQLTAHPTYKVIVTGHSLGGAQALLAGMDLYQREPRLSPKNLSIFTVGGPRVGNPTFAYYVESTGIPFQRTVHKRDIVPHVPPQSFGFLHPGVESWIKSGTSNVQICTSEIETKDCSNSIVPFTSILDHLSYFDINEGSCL
Experimental: as §1, §2, §3, §4, §5, §6, §7, §8, §9, §10, §11
(§22) Commercial lipase ROL was purchased from Sigma-Aldrich Co., Ltd. ROL is a non-immobilized lipase. Dissolve the ROL powder in water and centrifuge to obtain the supernatant containing the ROL lipase that would be regulated to improve its ester synthesis activity by adjusting the final protein concentration to 0.2 mg·mL^−1 and adding surfactants to the final concentration of 10 mM.
(§23) Commercial lipase ROL was purchased from Sigma-Aldrich Co., Ltd. and is a non-immobilized lipase. Dissolve the ROL powder in water, centrifuge to obtain the supernatant and treat the supernatant with different concentrations of surfactant LPC14 (the final protein concentration was 0.2 mg·mL^−1).

[4] = molecular target: T1, Rhizoupus oryzae lipase ROL; test: Hydrolytic activity of surfactant-treated lipase ROL using pNPP as substrate; conditions: protein 0.2 mg·mL^−1
Source text: as §14, §15, §16, §17, §18, §19, §20, §21, §22, §23

[5] = molecular target: T2, Pseudomonas cepacia lipase PCL (Burkholderia cepacia, UniProt P22088); test: Ester synthesis activity of surfactant-treated lyophilized lipase PCL by GC analysis; conditions: surfactant 10 mM, protein 0.2 mg·mL^−1
T2 construct: purchased Sigma-Aldrich Co., Ltd
T2 sequence (P22088 45-364): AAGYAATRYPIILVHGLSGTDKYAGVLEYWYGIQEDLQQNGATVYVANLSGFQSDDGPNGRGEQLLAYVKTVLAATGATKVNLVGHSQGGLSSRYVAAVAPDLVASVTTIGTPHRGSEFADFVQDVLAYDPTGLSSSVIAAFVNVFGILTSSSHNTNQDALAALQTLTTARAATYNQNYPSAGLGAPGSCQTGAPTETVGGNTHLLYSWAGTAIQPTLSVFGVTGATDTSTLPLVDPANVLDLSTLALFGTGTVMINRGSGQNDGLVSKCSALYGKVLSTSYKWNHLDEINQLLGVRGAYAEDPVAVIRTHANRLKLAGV
Experimental: as §1, §2, §3, §4, §5, §6, §7, §8, §9, §10, §11
as §22, with “PCL” for “ROL”, “the” for “its”
(§24) Commercial lipase PCL was purchased from Sigma-Aldrich Co., Ltd. and is a non-immobilized lipase. Dissolve the PCL powder in water, centrifuge to obtain the supernatant and treat the supernatant with different concentrations of surfactant DDM (the final protein concentration was 0.2 mg·mL^−1).

[6] = molecular target: T2, Pseudomonas cepacia lipase PCL; test: Hydrolytic activity of surfactant-treated lipase PCL using pNPP as substrate; conditions: surfactant 10 mM, protein 0.2 mg·mL^−1
Source text: as §14, §15, §16, §17, §18, §19, §20, §21
as §22, with “PCL” for “ROL”, “the” for “its”
as §24

[7] = molecular target: T3, Candida antarctica lipase CALB (Moesziomyces antarcticus, UniProt P41365); test: Ester synthesis activity of surfactant-treated lyophilized lipase CALB by GC analysis; conditions: surfactant 10 mM, protein 0.12 mg·mL^−1
T3 construct: purchased Sigma-Aldrich Co., Ltd
T3 sequence (P41365 26-342): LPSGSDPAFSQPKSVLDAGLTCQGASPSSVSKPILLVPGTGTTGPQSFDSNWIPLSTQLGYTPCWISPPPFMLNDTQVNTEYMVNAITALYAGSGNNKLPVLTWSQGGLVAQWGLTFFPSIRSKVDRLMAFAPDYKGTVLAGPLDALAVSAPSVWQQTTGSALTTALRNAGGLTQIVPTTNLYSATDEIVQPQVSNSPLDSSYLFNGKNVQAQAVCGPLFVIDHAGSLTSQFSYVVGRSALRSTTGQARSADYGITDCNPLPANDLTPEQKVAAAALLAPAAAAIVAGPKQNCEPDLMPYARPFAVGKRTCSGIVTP
Experimental: as §1, §2, §3, §4, §5, §6, §7, §8, §9, §10, §11
as §22, with “CALB” for “ROL”, “the” for “its”, “0.12” for “0.2”
(§25) Commercial lipase CALB was purchased from Sigma-Aldrich Co., Ltd. and is a non-immobilized lipase. Dissolve the CALB powder in water, centrifuge to obtain the supernatant and treat the supernatant with different concentrations of surfactant DDM (the final protein concentration was 0.12 mg·mL^−1).

[8] = molecular target: T3, Candida antarctica lipase CALB; test: Hydrolytic activity of surfactant-treated lipase CALB using pNPP as substrate; conditions: surfactant 10 mM, protein 0.12 mg·mL^−1
Source text: as §14, §15, §16, §17, §18, §19, §20, §21
as §22, with “CALB” for “ROL”, “the” for “its”, “0.12” for “0.2”
as §25

[9] = surfactant concentration 0.1 x CMC
[10] = surfactant concentration 1 x CMC
[11] = surfactant concentration 100 x CMC
[12] = surfactant concentration 10 x CMC

Molecule: CCCCCC(=O)OC[C@H](COP(=O)([O-])OCC[N+](C)(C)C)OC(=O)CCCCC [DiC6PC, 1,2-dihexanoyl lecithin]
- Ester synthesis activity, Specific activity ([1]; surfactant 10 mM): 15.9 U · mg^−1
- Ester synthesis activity, Total recovery ([1]; surfactant 10 mM): 256%
- Hydrolytic activity, Specific activity ([2]; surfactant 10 mM): 104.2 U · mg^−1
- Hydrolytic activity, Total recovery ([2]; surfactant 10 mM): 87%
- Ester synthesis activity, Specific activity ([3]; surfactant 10 mM): 3.11 U · mg^−1
- Hydrolytic activity, Specific activity ([4]; surfactant 10 mM): 15.2 U · mg^−1
- Hydrolytic activity, Total recovery ([4]; surfactant 10 mM): 76%
- Ester synthesis activity, Specific activity [5]: 7.1 U · mg^−1
- Ester synthesis activity, Total recovery [5]: 260%
- Hydrolytic activity, Specific activity [6]: 308.2 U · mg^−1
- Hydrolytic activity, Total recovery [6]: 140%
- Ester synthesis activity, Specific activity [7]: 31.9 U · mg^−1
- Hydrolytic activity, Specific activity [8]: 0.98 U · mg^−1
- Hydrolytic activity, Total recovery [8]: 85%

Molecule: CCCCCCCCCCCCCC(=O)OCC(O)COP(=O)([O-])OCC[N+](C)(C)C (stereo not drawn) [LPC14, 1-myristyl 2-acyl-cis-propyltri-phosphatidylcholine]
- Ester synthesis activity, Specific activity ([1]; surfactant 10 mM): 47.6 U · mg^−1
- Ester synthesis activity, Specific activity [1, 9]: 1.8 U · mg^−1
- Ester synthesis activity, Total recovery [1, 9]: 32%
- Ester synthesis activity, Specific activity [1, 10]: 1.4 U · mg^−1
- Ester synthesis activity, Total recovery [1, 10]: 25%
- Ester synthesis activity, Specific activity [1, 11]: 17.1 U · mg^−1
- Ester synthesis activity, Total recovery [1, 11]: 292%
- Hydrolytic activity, Total recovery ([2]; surfactant 10 mM): 97%
- Hydrolytic activity, Specific activity [2, 9]: 120.2 U · mg^−1
- Hydrolytic activity, Total recovery [2, 9]: 101%
- Hydrolytic activity, Specific activity [2, 10]: 122.2 U · mg^−1
- Hydrolytic activity, Total recovery [2, 10]: 102%
- Hydrolytic activity, Specific activity [2, 12]: 128.0 U · mg^−1
- Hydrolytic activity, Total recovery [2, 12]: 107%
- Hydrolytic activity, Specific activity [2, 11]: 125.7 U · mg^−1
- Hydrolytic activity, Total recovery [2, 11]: 102%
- Ester synthesis activity, Specific activity ([3]; surfactant 10 mM): 12.2 U · mg^−1
- Ester synthesis activity, Specific activity [3, 9]: 0.4 U · mg^−1
- Ester synthesis activity, Total recovery [3, 9]: 97%
- Ester synthesis activity, Specific activity [3, 10]: 0.2 U · mg^−1
- Ester synthesis activity, Total recovery [3, 10]: 46%
- Ester synthesis activity, Specific activity [3, 12]: 1.0 U · mg^−1
- Ester synthesis activity, Total recovery [3, 12]: 240%
- Ester synthesis activity, Specific activity [3, 11]: 6.2 U · mg^−1
- Hydrolytic activity, Specific activity ([4]; surfactant 10 mM): 33.1 U · mg^−1
- Hydrolytic activity, Total recovery ([4]; surfactant 10 mM): 106%
- Hydrolytic activity, Specific activity [4, 9]: 28.7 U · mg^−1
- Hydrolytic activity, Total recovery [4, 9]: 150%
- Hydrolytic activity, Specific activity [4, 10]: 27.7 U · mg^−1
- Hydrolytic activity, Total recovery [4, 10]: 139%
- Hydrolytic activity, Specific activity [4, 12]: 31.2 U · mg^−1
- Hydrolytic activity, Total recovery [4, 12]: 162%
- Hydrolytic activity, Specific activity [4, 11]: 39.0 U · mg^−1
- Hydrolytic activity, Total recovery [4, 11]: 206%
- Ester synthesis activity, Specific activity [5]: 44.6 U · mg^−1
- Hydrolytic activity, Specific activity [6]: 321.8 U · mg^−1
- Hydrolytic activity, Total recovery [6]: 119%
- Ester synthesis activity, Specific activity [7]: 36.8 U · mg^−1
- Hydrolytic activity, Specific activity [8]: 0.54 U · mg^−1
- Hydrolytic activity, Total recovery [8]: 38%

Molecule: polyethylene glycol octylphenyl Ether [Triton X-100]
- Ester synthesis activity, Specific activity ([1]; surfactant 10 mM): 12.9 U · mg^−1
- Ester synthesis activity, Total recovery ([1]; surfactant 10 mM): 192%
- Hydrolytic activity, Specific activity ([2]; surfactant 10 mM): 116.6 U · mg^−1
- Hydrolytic activity, Total recovery ([2]; surfactant 10 mM): 93%
- Ester synthesis activity, Specific activity ([3]; surfactant 10 mM): 1.7 U · mg^−1
- Ester synthesis activity, Total recovery ([3]; surfactant 10 mM): 200%
- Hydrolytic activity, Specific activity ([4]; surfactant 10 mM): 34.9 U · mg^−1
- Hydrolytic activity, Total recovery ([4]; surfactant 10 mM): 99%
- Ester synthesis activity, Specific activity [5]: 6.3 U · mg^−1
- Ester synthesis activity, Total recovery [5]: 174%
- Hydrolytic activity, Specific activity [6]: 364.5 U · mg^−1
- Hydrolytic activity, Total recovery [6]: 131%
- Ester synthesis activity, Specific activity [7]: 77.4 U · mg^−1
- Hydrolytic activity, Specific activity [8]: 0 U · mg^−1
- Hydrolytic activity, Total recovery [8]: 0%
